{
  "source": "paper PMC5325331",
  "about": "“A steroid like phytochemical Antcin M is an anti-aging reagent that eliminates hyperglycemia-accelerated premature senescence in dermal fibroblasts by direct activation of Nrf2 and SIRT-1” (Oncotarget, 2016)",
  "key": {"HNDFs [1]": {"test_system": "HNDFs", "experiment": "Cytotoxicity of antcins against HNDFs (MTT assay)", "format": "cell-based, human", "settings": "Homo sapiens, 72 h, read-out: IC50 (50% inhibitory concentration) against HNDFs", "experimental": "Figure 2 Effects of antcins on HG-induced senescence in HNDFs A. Type of antcins subjected to screen for potential anti-aging agents for skin aging. Names and chemical structures of the antcins are shown in the left and centrer column, respectively. The cytotoxic effects of antcins against HNDFs. Briefly, HNDFs were incubated with increasing concentrations (1, 5, 10 and 20 μM) of antcins including antcin A, antcin B, antcin C, antcin H, anticn K and antcin M for 72 h and the cell viability was determined by MTT assay. The 50% inhibitory concentrations (IC50) of each compound against HNDFs are shown in right column. B. Cells were incubated with antcin A (10 μM), antcin H (10 μM) and antcin M (10 μM) in the presence of HG (30 mM) for 72 h. Cellular senescence was determined by SA-β-gal activity. […] C. HNDFs were incubated with antcin A (10 μM), antcin H (10 μM) and antcin M (10 μM) in the presence of HG (30 mM) for 72 h. Senescence-associated marker proteins such as p16^INK4A, p21^CIP1 and SMP30 were determined by western blot analysis. D. To determine the effect of antcins on cell proliferation efficacy, HNDFs 5 × 10^4 cells/well in 6-well plates were incubated with antcins in the presence of HG (30 mM) for 72 h. Number of viable cells were quantified by the tryphan blue exclusion method. Results are expressed as mean ± S.E.M of three indipendent expriments. Statistical significance was et at ^ФP < 0.05 compared to NG vs HG and *P < 0.05 compared to HG vs. samples.\nHuman normal dermal fibroblasts (HNDFs, CCD966SK) and human umbilical vein endothelial cells (HUVECs) were obtained from the Bioresource Collection and Research Center (BCRC), Hsinchu, Taiwan. HNDFs were grown in MEM containing 10% FBS, 2 mM L-glutamine, 100 U/mL penicillin and streptomycin at 37°C in a fully humidified atmosphere of 5% CO2. Likewise, HUVECs were grown in M-199 medium supplemented with ECGS, heparin, 10% FBS and 100 U/mL penicillin and streptomycin at 37°C in a fully humidified atmosphere of 5% CO2. High-glucose treatment was performed by treating cells with 15 or 30 mM D-glucose (HG) for 24-72 h.\nCell viability was assessed by MTT colorimetric assay. Briefly, HNDFs (2 × 10^4 cells/well) or HUVECs (5 × 10^4 cells/well) were seeded in a 24-well culture plate. After treatment with HG (15 and 30 mM) in the presence or absence of samples for 24-72 h, culture media was withdrawn and incubated with MTT (1 mg/mL) in fresh medium for 2 h. The MTT formazan crystals were dissolved in 400 μL of DMSO and the samples were measured at 570 nm […] using an ELISA microplate reader (Bio-Tek Instruments, Winooski, VT). The percentage of cell viability (%) was calculated as (A570 of treated cells/A570 of untreated cells) × 100."}, "HNDFs [2]": {"test_system": "HNDFs", "experiment": "Cell-cycle analysis by flow cytometry (PI) in HG-induced HNDFs", "format": "cell-based, human", "settings": "ANM 10 μM with HG (30 mM) for 72 h; HG 71.2%, NG 46.5%", "experimental": "HNDFs at a density of 5 × 10^5 cells in 10 cm dishes were treated with ANM or NAC in the presence or absence of HG for 72 h. Cells were collected, washed with PBS and fixed in 95% cold-ethanol, and kept at −20°C overnight. The cell pellet was then washed again with PBS and centrifuged at 1500 × g for 5 min. The pellet was re-suspended in 1 mL PI/Triton X-100 (20 μg/mL PI, 0.1% Triton X-100 and 0.2 mg/mL RNAse) and incubated on ice for 30 min. The total cellular DNA content was analyzed with a flow cytometer (Beckman Coulter FC500). Data were acquired and analyzed using CXP software (Beckman Coulter)."}, "[3]": {"test_system": "SIRT-1, SIRT-3 and SIRT-6 mRNA", "experiment": "Q-PCR of SIRT genes in HNDFs", "format": "cell-based, human", "settings": "ANM 10 μM, 72 h", "experimental": "Total RNA was extracted from cultured HNDFs using Trizol Reagent (Thermo Fisher Scientific). Q-PCR analysis was performed using Applied Biosystems detection instruments and software. Forward and reverse primers (10 μM), and the working solution SYBR green, was used as a PCR master mix, under the following conditions: 96°C for 3 minutes followed by 40 cycles at 96°C for 1 minute, 50°C for 30 seconds and 72°C for 90 seconds. GAPDH was used as an internal standard to control for variability in amplification because of differences in starting mRNA concentrations. The copy number of each transcript was calculated as the relative copy number normalized by GAPDH copy number."}, "[4]": {"test_system": "C. elegans wild type Bristol N2", "experiment": "Stress-resistance assay (Juglone) in C. elegans", "format": "in vivo, Caenorhabditis elegans", "settings": "pretreatment 10 μM for 3 days, then Juglone 250 μM for 2.5, 3.5 and 4.5 h", "experimental": "The wild type Bristol N2 strain was used in this study. C. elegans and Escherichia coli OP50 strain were obtained from the Caenorhabditis Genetic Center, University of Minnesota (Minneapolis-St. Paul, MN). Worms were maintained at 20°C on nematode growth medium (NGM). Hatched worms (L1-stage larvae) were transferred to fresh agar plates and cultured with E. coli OP50 as a food source until they reached the L4 larvae stage. Synchronization of worm cultures was achieved by hypochlorite treatment of gravid hermaphrodites.\nAge synchronized L1 larvae were incubated with liquid S-basal medium containing E. coli OP50 at a density of 1 × 10^9 cells. Ml and 10 and 20 μM ANM or 0.01% DMSO (vehicle control) for 3 days. Subsequently, adult worms were subjected to oxidative stress assay. To induce oxidative stress, worms were incubated with Juglone (5-hydroxyl-1,4-naphthoquinone; Sigma), an ROS-generating agent. ANM treated and control worms were transferred to S-basal medium containing 250 μM Juglone, and incubated from 2.5, 3.5 and 4.5 h. After treatment, viable worms were scored. […] The test was performed triplicate."}, "[5]": {"test_system": "C. elegans wild type Bristol N2", "experiment": "Life span assay in C. elegans", "format": "in vivo, Caenorhabditis elegans", "experimental": "The wild type Bristol N2 strain was used in this study. C. elegans and Escherichia coli OP50 strain were obtained from the Caenorhabditis Genetic Center, University of Minnesota (Minneapolis-St. Paul, MN). Worms were maintained at 20°C on nematode growth medium (NGM). Hatched worms (L1-stage larvae) were transferred to fresh agar plates and cultured with E. coli OP50 as a food source until they reached the L4 larvae stage. Synchronization of worm cultures was achieved by hypochlorite treatment of gravid hermaphrodites. […] Control worms were treated with 0.1% DMSO. All worms were kept 20°C to develop adulthood. Surviving and dead animals were counted daily (starting from the first day of adulthood) until all worms had died. […] Worms suffering from internal hatch (a defect in egg-laying) and those that crawled off the NGM plate were not included in the life-span assay. During the reproductive period, adult worms were transferred to fresh NGM plates every and then every other day thereafter. Life span assay result was obtained from three independent assays."}},
  "data": [
    {"smiles": "C=C(CCC(C)C1CCC2C3=C(C(=O)C(O)C21C)C1(C)CCC(O)C(C)C1CC3)C(C)C(=O)O", "note": "(stereo not drawn) [ANM, antcin M]", "values": [
      {"measurement": "IC50", "setting": "HNDFs [1]", "value": "> 50", "unit": "µM"},
      {"measurement": "cell population in the G0/G1 phase", "setting": "HNDFs [2]", "value": 49.5, "unit": "%"},
      {"measurement": "SIRT-1, SIRT-3 and SIRT-6 levels compared to the control group", "setting": "[3]", "value": "significantly increased"},
      {"measurement": "survival rate of worms exposed to oxidative stress", "setting": "[4]", "value": "significantly increased the survival rate"},
      {"measurement": "life span of C. elegans under normal condition", "setting": "[5]; ANM 10 μM or RES 438 μM alone, compared to the control", "value": "significantly (P < 0.026) prolonged the life span"},
      {"measurement": "life span of C. elegans under high glucose", "setting": "[5]; high glucose (50 mM) with ANM (100 μM as printed elsewhere in the source), vs high glucose alone", "value": "significant (P < 0.0001) increase of life span"}
    ]}
  ]
}
